Reference: patent US20200102349A1, “PEPTIDE REAGENTS AND METHODS FOR DETECTION AND TARGETING OF DYSPLASIA, EARLY CANCER AND CANCER” (THE REGENTS OF THE UNIVERSITY OF MICHIGAN, priority 2014, published 2020)

What was measured:
[1] = test system: vascular endothelial growth factor A (VEGFA); settings: n=14 BE patients, topical and systemic; cited from earlier work
[2] = test system: Barrett's neoplasia (HGD/EAC); assay: Multiplexed in vivo imaging of distal esophagus in patients, both channels combined; design: species or system human; settings: topical, 5 minutes incubation
Experimental: A multi-modal scanning fiber endoscope (mmSFE) was designed to collect fluorescence and reflectance concurrently. A custom fiber-coupled multi-laser system (SpectraTEC, Blue Sky Research) provides illumination at λex=638 and 785 nm concurrently through a single mode fiber (SMF) to excite QRH*-Cy5 and KSP*-IRDye800, respectively. A 0.4 mm diameter metal coated piezo tube actuator (Nagamine) generates a spiral scan pattern at an average maximum deflection angle of about 70°. […]
The optics used to separate and collect fluorescence from each peptide was contained within the base station (VerAvanti). […] Fluorescence from QRH*-Cy5 was deflected by a second beam splitter (BS2, # Di02-R785, Semrock) centered at λ=785 nm through a bandpass filter (BPF, FF01-697/58, Semrock) that transmits between 668-726 nm for detection by MPPC2. Fluorescence from KSP*-IRDye800 passes through BS2 and long pass filter (LPF, # BLP01-785R, Semrock) with cutoff at λ=805 nm and is detected by MPPC3. […]
Consecutive patients referred to Michigan Medicine for either evaluation or therapy of Barrett's neoplasia (LGD/HGD/EAC) were recruited. […] Separate channels were used to record fluorescence images from QRH*-Cy5 and KSP*-IRDye800 and from reflectance at λ=638 nm. The conventional white light illumination was shut off during collection of fluorescence images to prevent interference. […]

[3] = Stability of lyophilized cGMP peptides on storage; format: physicochemical; settings: KSP*-IRDye800 lyophilized, −20° C.; for Molecular: molecular weight by Q-TOF
Text: QRHKPRE (SEQ ID NO: 1) was labeled with Cy5 via a GGGSK (SEQ ID NO: 18) linker to prevent steric hindrance. This sequence was selected using phage display methods for specific binding to EGFR.^22 KSPNPRF (SEQ ID NO: 26) was labeled with IRDye800 via a GGGSC (SEQ ID NO: 27) linker, hereafter KSP*-IRDye800. This sequence was identified using a structural model for specific binding to ErbB2.^23 The fluorophores used were chosen to minimize spectral overlap between absorbance and emission. QRH*-Cy5 and KSP*-IRDye800 were synthesized using current good manufacturing practices (cGMP) methods. Peptide stability was monitored by visual appearance, purity (HPLC), and molecular weight over the duration of the study.

[4] = Phase 1 first-in-human safety study, oral administration; format: in vivo; settings: n=25 human subjects, 0.5 mg or 1.2 mg
Experimental: A first-in-human study was performed to establish clinical evidence of safety for each peptide. An Investigational New Drug (IND) application (sponsor DKT) was prepared, and submitted for review to the US Food and Drug Administration (FDA). […] The study protocols were reviewed and approved by the Institutional Review Board (IRB) at the University of Michigan. These studies, including NCT02574858 (QRH*-Cy5) and NCT03161418 (KSP*-IRDye800), were registered online at ClinicalTrials.gov. A total of n=25 subjects was recruited for each study. All enrolled patients provided written informed consent. A dose escalation study was performed. The first n=3 subjects were administered 0.5 mg of peptide reconstituted in 5 mL of normal saline (0.9%) per oral. […] An electrocardiogram (EKG) was performed and vital signs were monitored. […] No images were collected during the safety study.

[5] = Pharmacology/toxicology study in rats, single dose oral gavage; format: in vivo; settings: for Blood tests (days 2 and 15) / Clinical signs / Necropsy (days 2 and 15) / Observe (morbidity, mortality, injury, body weights, food and water consumption) / Urinalysis: oral gavage; on Blood tests (days 2 and 15): key: NAD: No abnormalities detected; on Clinical signs: key: NAD: No abnormalities detected; on Necropsy (days 2 and 15): key: NAD: No abnormalities detected; on Observe (morbidity, mortality, injury, body weights, food and water consumption): key: NAD: No abnormalities detected; on Urinalysis: key: NAD: No abnormalities detected
Experimental: A rigorous pharmacology/toxicology study was performed in animals (MPI Research) for each peptide to provide pre-clinical evidence for safety. A total of 24 male and 24 female rats (CD®[Crl:CD® (SD)] (Charles River) were used in each study. At 8 weeks of age, the animals were randomly assigned to 4 groups, including 3 treatment and 1 control. Dose levels of 0.0086, 0.026, and 0.86 mg/kg were used for QRH*-Cy5, and 0.186, 0.32, and 1.08 mg/kg were used for KSP*-IRDye800. The control group received 10 mL/kg of PBS as vehicle. The vehicle and test articles were administered by single dose oral gavage. Clinical signs, including morbidity, mortality, and injury, were monitored twice daily. Laboratory tests and necropsy were evaluated in 3 animals/sex/dose on days 2 and 15.

[6] = biological target: T1, ErbB2 (Homo sapiens, UniProt P04626); assay: Multiplexed in vivo imaging of distal esophagus in patients, KSP*-IRDye800 channel
T1 construct: topically administered into the distal esophagus using a standard spray catheter; from tissue; host or cells: distal esophagus mucosa of Barrett's patients, in vivo
Experimental: A multi-modal scanning fiber endoscope (mmSFE) was designed to collect fluorescence and reflectance concurrently. A custom fiber-coupled multi-laser system (SpectraTEC, Blue Sky Research) provides illumination at λex=638 and 785 nm concurrently through a single mode fiber (SMF) to excite QRH*-Cy5 and KSP*-IRDye800, respectively. A 0.4 mm diameter metal coated piezo tube actuator (Nagamine) generates a spiral scan pattern at an average maximum deflection angle of about 70°. Large core (500 μm diameter) multi-mode fibers (MMF) with high numerical aperture (NA=0.6, Mitsubishi Rayon) are arranged around the instrument periphery to maximize light collection.^38 The diameter and rigid length of the distal tip were designed to pass forward easily through the working channel of a standard upper endoscope.
The optics used to separate and collect fluorescence from each peptide was contained within the base station (VerAvanti). A notch filter (NF, # NF03-785E-25, Semrock) was used to attenuate the excitation beam at λ=785 nm. Reflectance at λ=[…] was deflected by a dichroic beam splitter (BS1, # FF652-Di02, Semrock) to a multi-pixel photon counter (MPPC1, SiPM, Hamamatsu) for detection. Fluorescence from QRH*-Cy5 was deflected by a second beam splitter (BS2, # Di02-R785, Semrock) centered at λ=785 nm through a bandpass filter (BPF, FF01-697/58, Semrock) that transmits between 668-726 nm for detection by MPPC2. Fluorescence from KSP*-IRDye800 passes through BS2 and long pass filter (LPF, # BLP01-785R, Semrock) with cutoff at λ=805 nm and is detected by MPPC3. Kinematic filter cubes (DFM1/M, ThorLabs) were used to mount and align the optics.
Consecutive patients referred to Michigan Medicine for either evaluation or therapy of Barrett's neoplasia (LGD/HGD/EAC) were recruited. Inclusion criteria included: 1) history of Barrett's neoplasia, 2) medically able to tolerate upper endoscopy, and 3) age over 18. Exclusion criteria included: 1) history of esophagectomy and 2) on active chemotherapy or radiation protocol. The multiplexed imaging study was approved by the University of Michigan IRB, and was registered online at ClinicalTrials.gov (NCT03589443). […] Separate channels were used to record fluorescence images from QRH*-Cy5 and KSP*-IRDye800 and from reflectance at λ=638 nm. The conventional white light illumination was shut off during collection of fluorescence images to prevent interference. […]
Video streams with greater than 30 consecutive images (1 second) that had negligible artifacts, including debris, bubbles, pooling, and conventional white light, were extracted from the original recordings. Single frames from the target regions with high contrast and minimum motion blur and distortion were selected for intensity quantification. The frames were separated into two fluorescence channels and a co-registered reflectance image. Target/background (T/B) ratios were calculated for each fluorescence image as follows. […] Fluorescence regions with high intensity were segmented using the Chan-Vese algorithm,^39 where an active contour model was evolved iteratively to minimize the energy function, Eq. 1, defined by the weighted sum of the 1) boundary length, 2) area, and variance of intensity 3) inside and 4) outside of the segmented region. […]

Chain of vascular endothelial growth factor A (VEGFA) (P15692 207-311 limits assumed): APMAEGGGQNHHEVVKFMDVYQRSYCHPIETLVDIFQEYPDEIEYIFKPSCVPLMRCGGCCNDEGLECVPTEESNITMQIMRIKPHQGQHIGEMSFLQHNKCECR

Bevacizumab: antibody specific for VEGFA, repurposed for diagnostic imaging by labeling with IRDye800
increase in detection of early lesions using fluorescence compared with HD-WLE and NBI [1]: about 33%

Lys^1-Ser^2-Pro^3-Asn^4-Pro^5-Arg^6-Phe^7-Gly^8-Gly^9-Gly^10-Ser^11-Cys^12(IRDye800) [KSP*-IRDye800]
fluorescence from regions of HGD and EAC in vivo [2]: Increased fluorescence intensities
Molecular ([3]; time 0): 2397.6
Molecular ([3]; time 12): 2397.5
Molecular ([3]; time 24): 2397.6
Molecular ([3]; time 36): 2397.6
Purity (HPLC) ([3]; time 0): 98.8%
Purity (HPLC) ([3]; time 6): 98.8%
Purity (HPLC) ([3]; time 12): 98.7%
Purity (HPLC) ([3]; time 18): 98.9%
Purity (HPLC) ([3]; time 24): 98.9%
Purity (HPLC) ([3]; time 30): 98.7%
Purity (HPLC) ([3]; time 36): 98.9%
abnormalities in laboratory results, urinalysis, and EKG [4]: No abnormalities
adverse events (AE) [4]: no adverse events
Blood tests (days 2 and 15) ([5]; KSP*-IRDye800 0.186 mg/kg): NAD
Clinical signs ([5]; KSP*-IRDye800 0.186 mg/kg): NAD
Necropsy (days 2 and 15) ([5]; KSP*-IRDye800 0.186 mg/kg): NAD
Observe (morbidity, mortality, injury, body weights, food and water consumption) ([5]; KSP*-IRDye800 0.186 mg/kg): NAD
Urinalysis ([5]; KSP*-IRDye800 0.186 mg/kg): NAD
Blood tests (days 2 and 15) ([5]; KSP*-IRDye800 0.32 mg/kg): NAD
Clinical signs ([5]; KSP*-IRDye800 0.32 mg/kg): NAD
Necropsy (days 2 and 15) ([5]; KSP*-IRDye800 0.32 mg/kg): NAD
Observe (morbidity, mortality, injury, body weights, food and water consumption) ([5]; KSP*-IRDye800 0.32 mg/kg): NAD
Urinalysis ([5]; KSP*-IRDye800 0.32 mg/kg): NAD
Blood tests (days 2 and 15) ([5]; KSP*-IRDye800 1.08 mg/kg): NAD
Clinical signs ([5]; KSP*-IRDye800 1.08 mg/kg): NAD
Necropsy (days 2 and 15) ([5]; KSP*-IRDye800 1.08 mg/kg): NAD
Observe (morbidity, mortality, injury, body weights, food and water consumption) ([5]; KSP*-IRDye800 1.08 mg/kg): NAD
Urinalysis ([5]; KSP*-IRDye800 1.08 mg/kg): NAD
acute adverse effects in animal pharmacology/toxicology study (GLP) ([5]; single dose oral gavage): No acute adverse effects
mean (±SD) T/B ratio ([6]; HGD (n=7) and EAC (n=6)): 1.68±0.24
T/B ratio ([6]; LGD (n=1)): 1.14
mean (±SD) T/B ratio ([6]; SQ (n=3) and NDBE (n=6), topical, distal esophagus): 1.28±0.14
Accuracy ([6]; T/B ratio from KSP*-IRDye800 alone, HGD/EAC vs SQ/NDBE/LGD, LOOCV): 83%
AUC ([6]; T/B ratio from KSP*-IRDye800 alone, average of 1000 bootstrap samples): 0.95
